Measured values taken from patent US8952024B2, “Herbicidal pyrimidone derivatives” (E I du Pont de Nemours and Company, priority 2009, dated 2015).

Key:
Assay type in all cases: in vivo
[1] = test system: Surinam grass (Brachiaria decumbens); experiment: Test B pre-/postemergence plant response; details: for Surinam Grass plant response rating (0 to 100 scale): 62 g ai/ha, postemergence, 0 is no effect, 100 is complete control, 13 to 15 days; for Plant response rating, Surinam Grass: Postemergence
Outline: (§1)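 Visually scored on a 0 to 100 scale after 13 to 15 days in greenhouse versus controls. Treatments were preemergence on seeded loam/sand soil and postemergence on 1- to 4-leaf plants.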

[2] = test system: blackgrass (Alopecurus myosuroides); experiment: Test B pre-/postemergence plant response; details: for Blackgrass plant response rating (0 to 100 scale): 62 g ai/ha, 0 is no effect, 13 to 15 days
Outline: as §1

corn (Zea mays) = experiment: Test B pre-/postemergence plant response; details: for Corn plant response rating (0 to 100 scale): 62 g ai/ha, 0 is no effect, 13 to 15 days
Outline: as §1

[3] = test system: giant foxtail (Setaria faberii); experiment: Test B pre-/postemergence plant response; details: for Foxtail, Giant plant response rating (0 to 100 scale): 62 g ai/ha, 0 is no effect, 13 to 15 days
Outline: as §1

[4] = test system: goosegrass (Eleusine indica); experiment: Test B pre-/postemergence plant response; details: for Goosegrass plant response rating (0 to 100 scale): 62 g ai/ha, 0 is no effect, 13 to 15 days
Outline: as §1

[5] = test system: green foxtail (Setaria viridis); experiment: Test B pre-/postemergence plant response; details: for Foxtail, Green plant response rating (0 to 100 scale): 62 g ai/ha, 0 is no effect, 13 to 15 days
Outline: as §1

[6] = test system: johnsongrass (Sorghum halepense); experiment: Test B pre-/postemergence plant response; details: for Johnsongrass plant response rating (0 to 100 scale): 62 g ai/ha, 0 is no effect, 13 to 15 days
Outline: as §1

[7] = test system: lambsquarters (Chenopodium album); experiment: Test B pre-/postemergence plant response; details: for Lambsquarters plant response rating (0 to 100 scale): 62 g ai/ha, 0 is no effect, 13 to 15 days
Outline: as §1

[8] = test system: pigweed (Amaranthus retroflexus); experiment: Test B pre-/postemergence plant response; details: for Pigweed plant response rating (0 to 100 scale): 62 g ai/ha, 0 is no effect, 13 to 15 days
Outline: as §1

[9] = test system: ragweed (common ragweed, Ambrosia elatior); experiment: Test B pre-/postemergence plant response; details: for Ragweed plant response rating (0 to 100 scale): 62 g ai/ha, postemergence, 0 is no effect, 100 is complete control, 13 to 15 days; for Plant response rating, Ragweed: Postemergence
Outline: as §1

wild oat (Avena fatua) = experiment: Test B pre-/postemergence plant response; details: for Oat, Wild plant response rating (0 to 100 scale): 62 g ai/ha, 0 is no effect, 13 to 15 days
Outline: as §1

rice (Oryza sativa) = experiment: Test B flooded paddy test; details: for Plant response rating, Flood, Rice: 250 g ai/ha, flooded paddy test, visual rating on 0 to 100 scale (0 no effect, 100 complete control) after 13 to 15 days; for Plant response rating, Rice: Flood (flooded paddy test), 13 to 15 days
Outline: (§2)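 Rice, umbrella sedge, ducksalad and barnyardgrass were grown to the 2-leaf stage, flooded to 3 cm, and compound was applied directly to the paddy water, with that depth kept throughout. After 13 to 15 days in the greenhouse, plants were visually rated against controls on a 0 (no effect) to 100 (complete control) scale.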

[10] = test system: umbrella sedge (Cyperus difformis); experiment: Test B flooded paddy test; details: for Plant response rating, Flood, Sedge, Umbrella: 250 g ai/ha, flooded paddy test, visual rating on 0 to 100 scale (0 no effect, 100 complete control) after 13 to 15 days; for Plant response rating, Sedge, Umbrella: Flood (flooded paddy test), 13 to 15 days
Outline: as §2

[11] = 125 g ai/ha, scale 0 to 100 (0 no effect, 100 complete control)
[12] = 250 g ai/ha, scale 0 to 100 (0 no effect, 100 complete control)
[13] = 31 g ai/ha, postemergence, scale 0 to 100, 0 is no effect, 100 is complete control
[14] = postemergence, 100 is complete control
[15] = Postemergence, 125 g ai/ha, scale 0 to 100 (0 no effect, 100 complete control)
[16] = Postemergence, 250 g ai/ha, scale 0 to 100 (0 no effect, 100 complete control)
[17] = 62 g ai/ha, scale of 0 to 100 where 0 is no effect and 100 is complete control
[18] = 31 g ai/ha, 0 to 100 scale (0 no effect, 100 complete control)
[19] = Postemergence, 31 g ai/ha, 0 to 100 scale (0 no effect, 100 complete control)
[20] = 125 g ai/ha, scale 0 to 100, 0 is no effect, 100 is complete control
[21] = Flood, 31 g ai/ha, scale 0 to 100 (0 no effect, 100 complete control)

CCCCn1c(-c2cc(F)cc(F)c2)ncc(C(=O)C2=C(O)CCCC2=O)c1=O [Compound 121]
Surinam Grass plant response rating (0 to 100 scale) [1]: 100
Plant response rating, Surinam Grass [1, 11]: 100
Plant response rating, Surinam Grass [1, 12]: 100
Plant response rating, Blackgrass [2, 13]: 5
Blackgrass plant response rating (0 to 100 scale) [2, 14]: 40
Plant response rating, Blackgrass [2, 15]: 40
Plant response rating, Blackgrass [2, 16]: 60
Plant response rating, Corn (corn (Zea mays); [13]): 25
Corn plant response rating (0 to 100 scale) (corn (Zea mays); [14]): 55
Plant response rating, Corn (corn (Zea mays); [15]): 55
Plant response rating, Corn (corn (Zea mays); [16]): 85
Plant response rating, Foxtail, Giant [3, 13]: 95
Foxtail, Giant plant response rating (0 to 100 scale) [3, 14]: 98
Plant response rating, Foxtail, Giant [3, 15]: 98
Plant response rating, Foxtail, Giant [3, 16]: 98
Plant response rating, Goosegrass [4, 13]: 95
Goosegrass plant response rating (0 to 100 scale) [4, 14]: 98
Plant response rating, Goosegrass [4, 15]: 98
Plant response rating, Goosegrass [4, 16]: 98
Plant response rating, Foxtail, Green [5, 13]: 80
Foxtail, Green plant response rating (0 to 100 scale) [5, 14]: 90
Plant response rating, Foxtail, Green [5, 15]: 100
Plant response rating, Foxtail, Green [5, 16]: 100
Plant response rating, Johnsongrass [6, 13]: 20
Johnsongrass plant response rating (0 to 100 scale) [6, 14]: 70
Plant response rating, Johnsongrass [6, 16]: 85
Plant response rating, Lambsquarters [7, 13]: 95
Lambsquarters plant response rating (0 to 100 scale) [7, 14]: 100
Plant response rating, Lambsquarters [7, 15]: 100
Plant response rating, Lambsquarters [7, 16]: 100
Plant response rating, Pigweed [8, 13]: 100
Pigweed plant response rating (0 to 100 scale) [8, 14]: 100
Plant response rating, Pigweed [8, 15]: 100
Plant response rating, Pigweed [8, 16]: 100
Ragweed plant response rating (0 to 100 scale) [9]: 85
Plant response rating, Ragweed [9, 11]: 90
Plant response rating, Ragweed [9, 12]: 95
Plant response rating, Oat, Wild (wild oat (Avena fatua); [13]): 60
Oat, Wild plant response rating (0 to 100 scale) (wild oat (Avena fatua); [14]): 90
Plant response rating, Oat, Wild (wild oat (Avena fatua); [15]): 98
Plant response rating, Oat, Wild (wild oat (Avena fatua); [16]): 98
Plant response rating, Flood, Rice (rice (Oryza sativa)): 55
Plant response rating, Rice (rice (Oryza sativa); [17]): 0
Plant response rating, Flood, Sedge, Umbrella [10]: 70
Plant response rating, Sedge, Umbrella [10, 17]: 30

COCCn1c(-c2cccc(F)c2)ncc(C(=O)C2=C(O)CCCC2=O)c1=O [Compound 123]
Surinam Grass plant response rating (0 to 100 scale) [1]: 75
Plant response rating, Surinam Grass [1, 18]: 25
Plant response rating, Surinam Grass [1, 11]: 85
Plant response rating, Surinam Grass [1, 12]: 85
Blackgrass plant response rating (0 to 100 scale) [2, 14]: 20
Plant response rating, Blackgrass [2, 19]: 20
Plant response rating, Blackgrass [2, 15]: 40
Plant response rating, Blackgrass [2, 16]: 80
Corn plant response rating (0 to 100 scale) (corn (Zea mays); [14]): 70
Plant response rating, Corn (corn (Zea mays); [19]): 35
Plant response rating, Corn (corn (Zea mays); [15]): 75
Plant response rating, Corn (corn (Zea mays); [16]): 80
Foxtail, Giant plant response rating (0 to 100 scale) [3, 14]: 75
Plant response rating, Foxtail, Giant [3, 19]: 65
Plant response rating, Foxtail, Giant [3, 15]: 80
Plant response rating, Foxtail, Giant [3, 16]: 85
Goosegrass plant response rating (0 to 100 scale) [4, 14]: 65
Plant response rating, Goosegrass [4, 19]: 65
Plant response rating, Goosegrass [4, 15]: 80
Plant response rating, Goosegrass [4, 16]: 85
Foxtail, Green plant response rating (0 to 100 scale) [5, 14]: 60
Plant response rating, Foxtail, Green [5, 19]: 50
Plant response rating, Foxtail, Green [5, 15]: 85
Plant response rating, Foxtail, Green [5, 16]: 90
Johnsongrass plant response rating (0 to 100 scale) [6, 14]: 65
Plant response rating, Johnsongrass [6, 19]: 35
Plant response rating, Johnsongrass [6, 15]: 75
Plant response rating, Johnsongrass [6, 16]: 90
Lambsquarters plant response rating (0 to 100 scale) [7, 14]: 95
Plant response rating, Lambsquarters [7, 19]: 80
Plant response rating, Lambsquarters [7, 15]: 98
Plant response rating, Lambsquarters [7, 16]: 98
Pigweed plant response rating (0 to 100 scale) [8, 14]: 98
Plant response rating, Pigweed [8, 19]: 80
Plant response rating, Pigweed [8, 15]: 100
Plant response rating, Pigweed [8, 16]: 100
Ragweed plant response rating (0 to 100 scale) [9]: 85
Plant response rating, Ragweed [9, 18]: 70
Plant response rating, Ragweed [9, 11]: 95
Plant response rating, Ragweed [9, 12]: 98
Oat, Wild plant response rating (0 to 100 scale) (wild oat (Avena fatua); [14]): 5
Plant response rating, Oat, Wild (wild oat (Avena fatua); [19]): 0
Plant response rating, Oat, Wild (wild oat (Avena fatua); [15]): 30
Plant response rating, Oat, Wild (wild oat (Avena fatua); [16]): 60
Plant response rating, Flood, Rice (rice (Oryza sativa)): 40
Plant response rating, Rice (rice (Oryza sativa); [17]): 20
Plant response rating, Rice (rice (Oryza sativa); [20]): 30
Rice plant response rating (rice (Oryza sativa); [21]): 0
Plant response rating, Flood, Sedge, Umbrella [10]: 85
Plant response rating, Sedge, Umbrella [10, 17]: 70
Plant response rating, Sedge, Umbrella [10, 20]: 75
Sedge, Umbrella plant response rating [10, 21]: 40
